Source: patent publication US20090181948A1, “DIAMINE DERIVATIVE” (KYOWA HAKKO KOGYO CO., LTD., priority 2005, published 2009)

Tests used:
[1] = target: T1, histamine H3 receptor (Rattus norvegicus, UniProt Q9QYN8); assay: Inhibitory effect on histamine release suppressive action of histamine H3 receptor agonist (Nα-methylhistamine) in rat forebrain synaptosomes; assay type: biochemical; details: 1 μmol/L test compound and 1 μmol/L Nα-methylhistamine, potassium 30 mmol/L stimulation, read-out: Inhibition ratio of the [3H]-histamine release suppressive action of Nα-methylhistamine
T1 construct: from tissue; host or cells: rat striatum (Sprague-Dawley, male, 6 weeks), membrane homogenate
T1 sequence (Q9QYN8 whole entry): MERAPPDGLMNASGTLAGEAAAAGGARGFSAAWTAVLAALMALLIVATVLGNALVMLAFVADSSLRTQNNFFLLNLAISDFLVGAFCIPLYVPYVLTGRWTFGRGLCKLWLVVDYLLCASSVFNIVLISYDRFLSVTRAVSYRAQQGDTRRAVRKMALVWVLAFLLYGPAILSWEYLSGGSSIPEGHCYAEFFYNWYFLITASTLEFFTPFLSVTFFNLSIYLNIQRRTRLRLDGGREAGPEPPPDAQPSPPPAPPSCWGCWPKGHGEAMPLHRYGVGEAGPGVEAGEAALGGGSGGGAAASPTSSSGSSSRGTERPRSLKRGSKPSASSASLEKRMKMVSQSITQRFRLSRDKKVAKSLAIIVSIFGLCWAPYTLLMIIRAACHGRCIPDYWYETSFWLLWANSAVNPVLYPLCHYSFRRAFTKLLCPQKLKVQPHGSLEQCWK
Description: To the forebrains of Sprague-Dawley male rats (6 to 8 weeks of age), a 30-fold volume of a 0.32 mol/L aqueous sucrose solution was added and the forebrains were homogenized. The resulting homogenate was centrifuged (1,000×g, 4° C., 10 min), and to the obtained supernatant, an equivalent volume of Krebs-Ringer solution [120 mmol/L sodium chloride, 0.8 mmol/L potassium chloride, 2.6 mmol/L calcium chloride, 0.67 mmol/L magnesium sulfate, 1.2 mmol/L potassium dihydrogen phosphate, 27.5 mmol/L sodium bicarbonate, 10 mmol/L glucose (pH 7.3)] was added, and the resulting mixture was centrifuged (10,000×g, 4° C., 15 min). To the obtained precipitate, a 15-fold volume of Krebs-Ringer solution was added to suspend the precipitate. Then, the concentration of protein in the resulting tissue homogenate (synaptosomes) was measured and used for a test.
To the synaptosomes (300 μg in terms of protein amount) prepared by the above-described method, a [^3H]-histidine solution [final concentration: […] (740 kBq)/mL]: 6 μl of a 37 MBq/mL (specific activity: […]) solution] was added, and the total volume was adjusted to 300 μL with Krebs-Ringer solution. Then, the resulting mixture was incubated at 37° C. for 30 minutes and centrifuged (10,000×g, 25° C., 3 min). To the resulting precipitate (synaptosomes), 300 μL of Krebs-Ringer solution was added, and the mixture was incubated at 37° C. for 5 minutes and centrifuged (10,000×g, 25° C., 3 min). This procedure was repeated 5 times, whereby washing of synaptosomes was carried out. The resulting synaptosomes were suspended in 100 μL of Krebs-Ringer solution, and the resulting suspension was used for the following procedure.
A test compound and N^α-methylhistamine were separately dissolved in Krebs-Ringer solution to give a concentration of 20 μmol/L (the resulting mixtures were referred to as a test compound solution and a N^α-methylhistamine solution, respectively). To 100 μL of the above-described suspended synaptosomes (300 μg in terms of protein amount), 140 μL of Krebs-Ringer solution was added. Then, 30 μL of the test compound solution and 30 μL of the N^α-methylhistamine solution were added thereto, and the resulting mixture was incubated at 37° C. for 2 minutes. Then, an equivalent volume of a stimulating solution [64 mmol/L sodium chloride, 56.8 mmol/L potassium chloride, 2.6 mmol/L calcium chloride, 0.67 mmol/L magnesium sulfate, 1.2 mmol/L potassium dihydrogen phosphate, 27.5 mmol/L sodium bicarbonate, 10 mmol/L glucose (pH 7.3)] (final potassium concentration: 30 mmol/L) was added, and the resulting mixture was incubated at 37° C. for 2 minutes to release [^3H]-histamine. The reaction mixture was centrifuged (10,000×g, 25° C., 3 min), and the obtained supernatant was passed through Amberlite CG-50 column (250 μL), and the non-adsorbed fractions were discarded. Then, 2 mL of 50 mmol/L [[…]]/hydrochloric acid (HCl) (pH 7.5) (Tris) was passed through the column 3 times, and 2 mL of distilled water, and 1.5 mL of a 0.2 mol/L aqueous sodium hydroxide solution were passed through the column in this order, and the eluted fractions were discarded. Then, 2 mL of a 0.2 mol/L aqueous sodium hydroxide solution was passed through the column, and the eluted fraction was recovered in a scintillation vial. Then, 8 mL of Ultimagold (Perkin Elmer) was added to the recovered eluted solution, and the radioactivity ([^3H]-histamine) was measured using a liquid scintillation counter. The inhibitory action of the test compound on the histamine release suppressive action of N^α-methylhistamine was evaluated by obtaining the inhibition ratio to the histamine release suppressive action in the presence of 1 μmol/L No-methylhistamine and 1 μmol/L of the test compound. The inhibition ratio of the [^3H]-histamine release suppressive action was calculated using the following Equation (2). […]

[2] = target: T1, histamine H3 receptor; assay: Histamine H3 receptor binding assay ([3H]-Nα-methylhistamine binding to rat striatum homogenate); details: 1 μmol/L test compound; [3H]-Nα-methylhistamine 1 nmol/L; striata of Sprague-Dawley male rats, 25° C., 1 hour; read-out: Inhibition ratio of [3H]-Nα-methylhistamine binding
In short: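 Rat striatum membranes (20 μg protein) incubated with [3H]-Nα-methylhistamine 1 nmol/L in 50 mmol/L Tris/HCl pH 7.4, 5 mmol/L EDTA, 1 hour at 25° C; bound ligand by filtration and scintillation counting. Nonspecific binding defined with 10 μmol/L thioperamide; % inhibition reported at 1 μmol/L compound.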

SMILES | inhibition at 1 µM [1] [%] | inhibition at 1 µM [2] [%] | melting point [°C]
CN(CCCN1CCCCC1)C(=C(C#N)C#N)N1CCC(N2CCCCC2)CC1 [Compound 161, {[N-methyl-N-(3-piperidinopropyl)amino](4-piperidinopiperidino)methylene}malononitrile] | ≥ 70 | ≥ 80 | 104 to 105
N#CC(C#N)=C(NCCCN1CCOCC1)N1CCC(N2CCCCC2)CC1 [Compound 165, [(4-Piperidinopiperidino)(3-morpholinopropylamino)methylene]malononitrile] | ≥ 70 | ≥ 80 | 77 to 80
CN(CCCN1CCOCC1)C(=C(C#N)C#N)N1CCC(N2CCCCC2)CC1 [Compound 166] | ≥ 70 | ≥ 80 | 104 to 106
CC(C)N1CCC(N(C)C(=C(C#N)C#N)N2CCC(CN3CCCC3C)CC2)CC1 (stereo not drawn) [Compound 181, {[N-(1-isopropylpiperidin-4-yl)-N-methylamino][4-(2-methylpyrrolidin-1-ylmethyl)piperidino]methylene}malononitrile] | ≥ 70 | ≥ 80 | 138 to 140
C[C@@H]1CCCN1CCN1CCN(CCN2CCC[C@H]2C)C1=C(C#N)C#N [Compound 189, {1,3-Bis[2-((R)-2-methylpyrrolidin-1-yl)ethyl]imidazolidin-2-ylidene}malononitrile] | ≥ 70 | ≥ 80 | 139 to 141
C[C@@H]1CCCN1CCN1CCN(CCCN2CCCCC2)C1=C(C#N)C#N [Compound 193, {1-[2-((R)-2-methylpyrrolidin-1-yl)ethyl]-3-(3-piperidinopropyl)imidazolidin-2-ylidene}malononitrile] | ≥ 70 | ≥ 80 | 89 to 90
C[C@@H]1CCCN1CCCN1C(=C(C#N)C#N)N(CCCN2CCC[C@H]2C)c2ccccc21 [Compound 205, {1,3-Bis[3-((R)-2-methylpyrrolidin-1-yl)propyl]benzimidazolidin-2-ylidene}malononitrile] | ≥ 70 | ≥ 80 | 96 to 97
N#CC(C#N)=C1N(CCCN2CCCCC2)CCN1C1CCN(C2CC2)CC1 [Compound 226, [1-(1-Cyclopropylpiperidin-4-yl)-3-(3-piperidinopropyl)imidazolidin-2-ylidene]malononitrile] | ≥ 70 | ≥ 80 | 104 to 105

More lines, now with the values ahead:

inhibition at 1 µM [1] [%] | inhibition at 1 µM [2] [%] | melting point [°C] | SMILES
≥ 70 | ≥ 80 | 129 to 130 | CC(C)N1CCC(N(C)C(=C(C#N)C#N)N2CCC(N3CCCCC3)CC2)CC1 [Compound 176, {[N-(1-isopropylpiperidin-4-yl)-N-methylamino](4-piperidinopiperidino)methylene}malononitrile]
≥ 70 | ≥ 80 | 124 to 125 | CC(C)N1CCC(N2CCN(CCCN3CCSCC3)C2=C(C#N)C#N)CC1 [Compound 231, [1-(1-Isopropylpiperidin-4-yl)-3-(3-thiomorpholin-1-ylpropyl)imidazolidin-2-ylidene]malononitrile]
≥ 70 | ≥ 80 | 103 to 105 | CC(C)N1CCC(N2CCN(CCCN3CCC(=O)CC3)C2=C(C#N)C#N)CC1 [Compound 233, {1-(1-Isopropylpiperidin-4-yl)-3-[3-(4-oxopiperidino)propyl]imidazolidin-2-ylidene}malononitrile]
≥ 70 | ≥ 80 | 117 to 118 | CC(C)N1CCC(N2CCN(CCCN3C[C@@H](C)O[C@@H](C)C3)C2=C(C#N)C#N)CC1 [Compound 234, {3-[3-(Cis-2,6-dimethylmorpholino)propyl]-1-(1-isopropylpiperidin-4-yl)imidazolidin-2-ylidene}malononitrile]
≥ 70 | ≥ 80 | 104 to 106 | N#CC(C#N)=C1N(CCCN2CCOCC2)CCN1C1CCN(C2CC2)CC1 [Compound 235, [1-(1-Cyclopropylpiperidin-4-yl)-3-(3-morpholinopropyl)imidazolidin-2-ylidene]malononitrile]
